# Experimental data as given in patent US20250171459A1, “2-METHYL-4',5'-DIHYDROSPIRO[PIPERIDINE-4,7'-THIENO[2,3-C]PYRAN] DERIVATIVES AS INHIBITORS OF APOL1 AND METHODS OF USING SAME” (Vertex Pharmaceuticals Incorporated, priority 2022, published 2025).
# Target: T1, APOL1 (Homo sapiens, UniProt O14791)
# T1 sequence (O14791 1-398 S342G/I384M): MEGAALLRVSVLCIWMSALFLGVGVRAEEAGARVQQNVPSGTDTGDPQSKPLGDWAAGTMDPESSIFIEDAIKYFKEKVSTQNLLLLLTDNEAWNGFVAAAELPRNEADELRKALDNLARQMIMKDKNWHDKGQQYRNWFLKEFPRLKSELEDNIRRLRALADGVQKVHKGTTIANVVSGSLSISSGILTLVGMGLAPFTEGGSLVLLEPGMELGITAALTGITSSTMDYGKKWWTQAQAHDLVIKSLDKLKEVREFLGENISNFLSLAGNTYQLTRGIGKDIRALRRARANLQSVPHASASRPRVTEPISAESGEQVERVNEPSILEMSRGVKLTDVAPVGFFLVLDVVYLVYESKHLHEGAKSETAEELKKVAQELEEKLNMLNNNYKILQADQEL
# Assay: MultiTox-Fluor Multiplex Cytotoxicity Assay in tet-inducible APOL1 T-REx-HEK293 cells (cell rescue, ratio of dead to live cells)
# Format: cell-based
# Settings: tet-inducible transgenic APOL1 T-REx-HEK293 cell lines, 50 ng/mL tet, 24 hours; read-out: IP50 (i.e., IC50 for cell proliferation)
# How it was run: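 T-REx-HEK293 cells with tet-inducible APOL1 were treated with compound (10 μM top, 10-point 3-fold dilution, duplicate) plus 50 ng/mL tetracycline for 24 h at 37° C, in DMEM with 2% tet-free FBS. MultiTox-Fluor protease signals gave a dead/live ratio, normalized to no tet (100% viability) and tet alone (0%).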
smiles,measurement,value
C[C@H]1C[C@@]2(CCN1Cc1cnc(NC(C)(C)CO)nc1)OC[C@](O)(C(F)F)c1cc(Cl)sc12 [Compound 830],IC50,< 100 nM
C[C@H]1C[C@@]2(CCN1Cc1cnn(C)c1)OC[C@](O)(C(F)F)c1cc(Cl)sc12 [Compound 831],IC50,< 100 nM
C[C@H]1C[C@@]2(CCN1Cc1cn(CCS(C)(=O)=O)nn1)OC[C@](O)(C(F)F)c1cc(Cl)sc12 [Compound 832],IC50,< 100 nM
C[C@H]1C[C@@]2(CCN1Cc1cnn(CC(C)(CO)CO)c1)OC[C@](O)(C(F)F)c1cc(Cl)sc12 [Compound 833],IC50,< 100 nM
C[C@H]1C[C@@]2(CCN1Cc1cnn(CCS(C)(=O)=O)c1)OC[C@@](O)(C(F)F)c1cc(Cl)sc12 [Compound 834],IC50,< 100 nM
CO[C@]1(C(F)F)CO[C@@]2(CCN(Cc3cnn(CCS(C)(=O)=O)c3)[C@@H](C)C2)c2sc(Cl)cc21 [Compound 835],IC50,< 100 nM
"C[C@H]1C[C@@]2(CCN1Cc1cn(CC(O)C(C)(C)O)nn1)OC[C@@](O)(C(F)F)c1cc(Cl)sc12 (stereo partly drawn) [Compound 836, 1-[4-[[(2′S,4R,7R)-2-chloro-4-(difluoromethyl)-4-hydroxy-2′-methyl-spiro[5H-thieno[2,3-c]pyran-7,4′-piperidine]-1′-yl]methyl]triazol-1-yl]-3-methyl-butane-2,3-diol]",IC50,< 100 nM
CC(O)Cn1cc(CN2CC[C@]3(C[C@@H]2C)OC[C@](O)(C(F)F)c2cc(Cl)sc23)nn1 (stereo partly shown) [Compound 837],IC50,< 100 nM
C[C@H]1C[C@@]2(CCN1Cc1cn(CC(C)(C)CO)nn1)OC[C@](O)(C(F)F)c1cc(Cl)sc12 [Compound 838],IC50,500 to 1000 nM
C[C@H]1C[C@@]2(CCN1Cc1cn(CCCS(C)(=O)=O)nn1)OC[C@](O)(C(F)F)c1cc(Cl)sc12 [Compound 839],IC50,< 100 nM
C[C@H]1C[C@@]2(CCN1Cc1cn(CC(C)(CO)CO)nn1)OC[C@](O)(C(F)F)c1cc(Cl)sc12 [Compound 840],IC50,< 100 nM
C[C@H]1C[C@@]2(CCN1Cc1cn(C3CCOCC3)nn1)OC[C@](O)(C(F)F)c1cc(Cl)sc12 [Compound 841],IC50,< 100 nM
CCOC1CO[C@@]2(CCN(Cc3cnn(CCS(C)(=O)=O)c3)[C@@H](C)C2)c2sc(Cl)cc21 (stereo partly shown) [Compound 844],IC50,100 to 500 nM
CC(C)OC1CO[C@@]2(CCN(Cc3cnn(CCS(C)(=O)=O)c3)[C@@H](C)C2)c2sc(Cl)cc21 (stereo partly shown) [Compound 845],IC50,100 to 500 nM
[2H]C([2H])([2H])OC1CO[C@@]2(CCN(Cc3cnn(CCS(C)(=O)=O)c3)[C@@H](C)C2)c2sc(Cl)cc21 (stereo partly shown) [Compound 846],IC50,< 100 nM
"CC(=O)OC1CO[C@@]2(CCN(Cc3cnn(CCS(C)(=O)=O)c3)[C@@H](C)C2)c2sc(Cl)cc21 (stereo partly drawn) [Compound 847, [(2′S, 7R)-2-chloro-2′-methyl-1′-[[1-(2-methylsulfonylethyl)pyrazol-4-yl]methyl]spiro[4,5-dihydrothieno[2,3-c]pyran-7,4′-piperidine]-4-yl]acetate]",IC50,< 100 nM
"C[C@H]1C[C@@]2(CCN1Cc1cnn(C)c1)OCC(C)(O)c1cc(Cl)sc12 (stereo partly drawn) [Compound 848, (2′S, 7R)-2-chloro-2′,4-dimethyl-1′-[(1-methylpyrazol-4-yl)methyl]spiro[5H-thieno[2,3-c]pyran-7,4′-piperidine]-4-ol]",IC50,< 100 nM
"C[C@H]1C[C@@]2(CCN1Cc1cnn(C)c1)OCC(O)(c1ccccc1)c1cc(Cl)sc12 (stereo partly drawn) [Compound 849, (2′S,7R)-2-chloro-2′-methyl-1′-[(1-methylpyrazol-4-yl)methyl]-4-phenyl-spiro[5H-thieno[2,3-c]pyran-7,4′-piperidine]-4-ol]",IC50,100 to 500 nM
"C[C@H]1C[C@@]2(CCN1Cc1cnn(C)c1)OCC(O)(c1ccccc1)c1cc(Cl)sc12 (stereo partly drawn) [Compound 850, (2′S,7R)-2-chloro-2′-methyl-1′-[(1-methylpyrazol-4-yl)methyl]-4-phenyl-spiro[5H-thieno[2,3-c]pyran-7,4′-piperidine]-4-ol]",IC50,100 to 500 nM
"C[C@H]1C[C@@]2(CCN1Cc1cnn(CCS(C)(=O)=O)c1)OCC(O)(C(F)(F)F)c1cc(Cl)sc12 (stereo partly drawn) [Compound 852, (2′S,7R)-2-chloro-2′-methyl-1′-[[1-(2-methylsulfonylethyl)pyrazol-4-yl]methyl]-4-(trifluoromethyl)spiro[5H-thieno[2,3-c]pyran-7,4′-piperidine]-4-ol]",IC50,< 100 nM
"C[C@H]1C[C@@]2(CCN1Cc1cnn(CCS(C)(=O)=O)c1)OCC(N1C(=O)c3ccccc3C1=O)c1cc(Cl)sc12 (stereo partly drawn) [Compound 853, 2-[(2′S, 7R)-2-chloro-2′-methyl-1′-[[1-(2-methylsulfonylethyl)pyrazol-4-yl]methyl]spiro[4,5-dihydrothieno[2,3-c]pyran-7,4′-piperidine]-4-yl]isoindoline-1,3-dione]",IC50,100 to 500 nM
"C[C@H]1C[C@@]2(CCN1Cc1cnn(CCS(C)(=O)=O)c1)OCC(N)c1cc(Cl)sc12 (stereo partly drawn) [Compound 854, (2′S, 7R)-2-chloro-2′-methyl-1′-[[1-(2-methylsulfonylethyl)pyrazol-4-yl]methyl]spiro[4,5-dihydrothieno[2,3-c]pyran-7,4′-piperidine]-4-amine]",IC50,< 100 nM
"CC(=O)NC1CO[C@@]2(CCN(Cc3cnn(CCS(C)(=O)=O)c3)[C@@H](C)C2)c2sc(Cl)cc21 (stereo partly drawn) [Compound 855, N-[(2′S, 7R)-2-chloro-2′-methyl-1′-[[1-(2-methylsulfonylethyl)pyrazol-4-yl]methyl]spiro[4,5-dihydrothieno[2,3-c]pyran-7,4′-piperidine]-4-yl]acetamide]",IC50,< 100 nM
"C[C@H]1C[C@@]2(CCN1Cc1cnn(CCS(C)(=O)=O)c1)OCC(C#N)c1cc(Cl)sc12 (stereo partly drawn) [Compound 856, (2′S, 7R)-2-chloro-2′-methyl-1′-[[1-(2-methylsulfonylethyl)pyrazol-4-yl]methyl]spiro[4,5-dihydrothieno[2,3-c]pyran-7,4′-piperidine]-4-carbonitrile]",IC50,< 100 nM
"CC(=O)N(C)C1CO[C@@]2(CCN(Cc3cnn(CCS(C)(=O)=O)c3)[C@@H](C)C2)c2sc(Cl)cc21 (stereo partly drawn) [Compound 857, N-[(2′S, 7R)-2-chloro-2′-methyl-1′-[[1-(2-methylsulfonylethyl)pyrazol-4-yl]methyl]spiro[4,5-dihydrothieno[2,3-c]pyran-7,4′-piperidine]-4-yl]-N-methyl-acetamide]",IC50,< 100 nM
"Cc1c(Cl)sc2c1C(O)CO[C@@]21CCN(Cc2cnn(CCS(C)(=O)=O)c2)[C@@H](C)C1 (stereo partly drawn) [Compound 858, (2′S, 7R)-2-chloro-2′,3-dimethyl-1′-[[1-(2-methylsulfonylethyl)pyrazol-4-yl]methyl]spiro[4,5-dihydrothieno[2,3-c]pyran-7,4′-piperidine]-4-ol]",IC50,< 100 nM
"C[C@H]1C[C@@]2(CCN1Cc1cnn(CCS(C)(=O)=O)c1)OCC(O)c1c2sc(Cl)c1Cl (stereo partly drawn) [Compound 860, (2′S, 7R)-2,3-dichloro-2′-methyl-1′-[[1-(2-methylsulfonylethyl)pyrazol-4-yl]methyl]spiro[4,5-dihydrothieno[2,3-c]pyran-7,4′-piperidine]-4-ol]",IC50,< 100 nM
"C[C@H]1C[C@@]2(CCN1Cc1cnn(CCS(C)(=O)=O)c1)OCC(O)c1c2sc(Cl)c1Cl (stereo partly drawn) [Compound 861, (2S,4R)-2′,3′-dichloro-2-methyl-1-((1-(2-(methylsulfonyl)ethyl)-1H-pyrazol-4-yl)methyl)-4′l3-spiro[piperidine-4,7′-thieno[3,2-d]pyran]-4′(5′H)-ol]",IC50,100 to 500 nM
"C[C@H]1C[C@@]2(CCN1Cc1cn(CCS(C)(=O)=O)nn1)OCC(F)(F)c1cc(Cl)sc12 [Compound 862, (2S,4R)-2′-chloro-4′,4′-difluoro-2-methyl-1-((1-(2-(methylsulfonyl)ethyl)-1H-1,2,3-triazol-4-yl)methyl)-4′,5′-dihydrospiro[piperidine-4,7′-thieno[2,3-c]pyran]]",IC50,100 to 500 nM
"C[C@H]1C[C@@]2(CCN1Cc1cn(CCS(C)(=O)=O)nn1)OCC(F)c1cc(Cl)sc12 (stereo partly drawn) [Compound 863, (2S,4R)-2′-chloro-4′-fluoro-2-methyl-1-((1-(2-(methylsulfonyl)ethyl)-1H-1,2,3-triazol-4-yl)methyl)-4′,5′-dihydrospiro[piperidine-4,7′-thieno[2,3-c]pyran]]",IC50,100 to 500 nM
"C[C@H]1C[C@@]2(CCN1C1CCCC1O)OCCc1cc(C(F)(F)F)sc12 (stereo partly drawn) [Compound 864, 2-[(2′S,7R)-2′-methyl-2-(trifluoromethyl)spiro[4,5-dihydrothieno[2,3-c]pyran-7,4′-piperidine]-1′-yl]cyclopentanol]",IC50,100 to 500 nM
"C[C@H]1C[C@@]2(CCN1C1CCCC1O)OCCc1cc(C(F)(F)F)sc12 (stereo partly drawn) [Compound 865, 2-[(2′S,7R)-2′-methyl-2-(trifluoromethyl)spiro[4,5-dihydrothieno[2,3-c]pyran-7,4′-piperidine]-1′-yl]cyclopentanol]",IC50,100 to 500 nM
"C[C@H]1C[C@@]2(CCN1C1COCC1O)OCCc1cc(C(F)(F)F)sc12 (stereo partly drawn) [Compound 866, 4-[(2′S, 7R)-2′-methyl-2-(trifluoromethyl)spiro[4,5-dihydrothieno[2,3-c]pyran-7,4′-piperidine]-1′-yl]tetrahydrofuran-3-ol]",IC50,100 to 500 nM
"C[C@H]1C[C@@]2(CCN1C[C@H](O)C(N)=O)OCCc1cc(C(F)(F)F)sc12 [Compound 867, (2S)-2-hydroxy-3-[(2′S,7R)-2′-methyl-2-(trifluoromethyl)spiro[4,5-dihydrothieno[2,3-c]pyran-7,4′-piperidine]-1′-yl]propanamide]",IC50,100 to 500 nM
